Here are results for 1 substance from US20020114734A1, “Microplate thermal shift assay apparatus for ligand development and multi-variable protein chemistry optimization” (priority 1996, published 2002).

Read-outs that look alike come from different tables or passages of the source.

In data set [1] the target is T1, heparin binding site of human α-thrombin (Homo sapiens, UniProt P00734).
T1 construct: A stock human α-thrombin solution; purchased Enzyme Research Labs
Put plainly: Microplate thermal shift assay, ligands binding to the heparin binding site, turbidity as signal. An excerpt: Assays for ligands that bind to the heparin binding site of human α-thrombin are more difficult to perform than assays for ligands that bind to the active site of human α-thrombin. At the heparin binding site, no substrate is hydrolyzed, so no spectrophotometric signal can be amplified for instrumental detection. Heparin activity is usually estimated in biological clotting time assays. […] Thus, heparin binding to human α-thrombin represents the kind of challenge encountered with the vast majority of non-enzyme receptor/ligand binding events, which are commonly observed for hormone/receptor interactions, repressor/DNA interactions, neurotransmitter/receptor interactions, etc. Several heparin-like sulfated oligosaccharides and sulfated naphthalene compounds were assayed by the microplate thermal shift assay. Using the thermal shift assay, it was possible to use a single compound per well to quickly rank the compounds in order of increasing binding affinity, with Kd's ranging over three orders of magnitude (see Table 4). Like the experiment in Example 1, the thermal shift assay results agreed closely with the results obtained through an alternative method, which required a series of laborious (15 to 20 single determinations) fluorescence quench assays over a wide range of concentrations of low MW heparin (Olson, S. T. et al., J. Biol. Chem. 266:6342-6352 (1991)).

The target in data set [2] is T2, acidic fibroblast growth factor (aFGF) (Homo sapiens, UniProt P05230).
T2 construct: host or cells: E. coli
T2 sequence (P05230 whole entry, species assumed): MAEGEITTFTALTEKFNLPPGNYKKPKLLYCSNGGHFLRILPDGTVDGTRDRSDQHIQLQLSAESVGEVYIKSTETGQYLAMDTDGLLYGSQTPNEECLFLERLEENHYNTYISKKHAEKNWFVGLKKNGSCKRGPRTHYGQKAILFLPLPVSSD
Put plainly: Microplate thermal shift assay for ligands binding to aFGF, turbidity as signal. An excerpt: The second therapeutic receptor tested in the microplate thermal shift assay was acidic fibroblast growth factor (aFGF), a growth factor that plays a key role in angiogenesis (Folkman, J. et al., J. Biol. Chem. 267:10931-10934 (1992)). A synthetic gene for this protein was purchased from R&D Systems (Minneapolis, Minn.), and was cloned and expressed in E. coli using methods similar to those described for basic fibroblast growth factor (bFGF) (Thompson, L. D. et al., Biochemistry 33:3831-3840 (1994); Pantoliano, M. W. et al., Biochemistry 33:10229-10248 (1994); Springer, B. A. et al., J. Biol. Chem. 269:26879-26884 (1994)). Recombinant aFGF was then purified by heparin-sepharose affinity chromatography as described (Thompson, L. D. et al., Biochemistry 33:3831-3840 (1994)). aFGF is also known to bind heparin/heparan, which is a cofactor for mitogenic activity. […] A microplate thermal assay of these compounds was set up in a way similar to that described above for human α-thrombin. […] The affinity constants covered a fairly broad range of binding affinities, with pentosan PSO4 showing the highest affinity.

Data set [3] addresses T3, heparin binding site of basic fibroblast growth factor (bFGF) (Homo sapiens, UniProt P09038).
T3 construct: host or cells: E. coli
Put plainly: Microplate thermal shift assay for ligands binding to bFGF. The conditions noted are these: read-out: binding affinity. An excerpt:
The microplate thermal shift assay was used to assess ligands for binding to the heparin binding site of basic fibroblast growth factor (bFGF). The gene for bFGF was purchased from R&D Systems and was cloned and expressed in E. coli as previously described (Thompson, L. D. et al., Biochemistry 33:3831-3840 (1994); Pantoliano, M. W. et al., Biochemistry 33:10229-10248 (1994); Springer, B. A. et al., J. Biol. Chem. 269:26879-26884 (1994)).

For data set [4], the system named is D(II) domain of human FGF receptor 1. Briefly: Microplate thermal shift assay for ligands binding to D(II) FGFR1, fluorescence emission as signal. An excerpt: The microplate thermal-shift assay was employed to test the binding of heparin 5000 and pentosan PSO4 to the known heparin binding site in the D(II) domain of fibroblast growth factor receptor 1 (FGFR1). D(II) FGFR1 is a 124 residue domain which is responsible for most of the free energy of binding for bFGF. D(II) FGFR1 was cloned and expressed in E. coli. Recombinant D(II) FGFR1 was renatured from inclusion bodies essentially as described (Wetmore, D. R. et al., Proc. Soc. Mtg., San Diego, Calif. (1994)), except that a hexa-histidine tag was included at the N-terminus to facilitate recovery by affinity chromatography on a Ni^2+ chelate column (Janknecht, R. et al., Natl. Acad. Sci. USA 88:8972-8976 (1991)). D(II) FGFR1 was further purified on a heparin-sepharose column (Kan, M. et al., Science 259:1918-1921 (1993); Pantoliano, M. W. et al., Biochemistry 33:10229-10248 (1994)). Purity was >95%, as judged by SDS-PAGE. The D(II) FGFR1 protein was concentrated to 12 mg/mL (˜1 mM) and stored at 4° C.
Sequence of D(II) domain of human FGF receptor 1 (P11362 158-246 limits assumed): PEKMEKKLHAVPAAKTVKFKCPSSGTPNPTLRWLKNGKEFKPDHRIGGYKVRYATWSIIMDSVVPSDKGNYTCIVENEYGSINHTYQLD
The D(II) FGFR1 protein was dissolved in an ANS solution to a concentration of […] (70 μM). The quantum yield for ANS bound to the denatured form of D(II) FGFR1 was lower than the quantum yield for ANS bound to human α-thrombin. Because ANS fluorescence is very environment dependent (see Lakowicz, I. R. Principles of Fluorescence Spectroscopy, Plenum Press, New York (1983)), the quantum yield observed for the denaturation of different proteins will vary. For D(II) FGFR1, the signal for the turbidity version of the assay, however, was nearly undetectable. Despite the decreased sensitivity for D(II) FGFR1, ANS rescued this system for the microplate assay. A similar-result was obtained for Factor Xa, except that the fluorescence quantum yield for ANS bound to denatured Factor Xa was almost as good as it was for human α-thrombin.

Data set [5] deals with bFGF (Homo sapiens, UniProt P09038). The settings on record: binding to bFGF by isothermal titrating calorimetry; read-out: Ki (298° K) Literature; cited from earlier work.
Sequence of bFGF (P09038 134-288, species assumed): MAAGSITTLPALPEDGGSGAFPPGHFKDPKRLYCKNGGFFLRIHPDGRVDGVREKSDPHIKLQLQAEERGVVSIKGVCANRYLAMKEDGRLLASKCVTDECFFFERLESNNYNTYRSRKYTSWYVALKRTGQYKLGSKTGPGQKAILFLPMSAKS
The target of data set [6] is D(II)-D(III) FGFR1. The conditions noted are these: titrating calorimetry, read-out: Kd (298° K) Literature; cited from earlier work.
Sequence of D(II)-D(III) FGFR1 (P11362 150-254 limits assumed): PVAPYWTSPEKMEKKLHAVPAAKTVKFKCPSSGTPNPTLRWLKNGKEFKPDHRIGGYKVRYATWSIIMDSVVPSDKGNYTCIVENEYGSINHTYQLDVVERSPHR
For data set [7] the following is noted: literature; cited from earlier work.
For data set [8] the following is noted: many effects described as coagulation anomalies; cited from earlier work.
Where [9] appears, read: equation (1), estimated ΔHu 60.0 kcal/mole, ΔCpu 0.95 kcal/mole-°K, read-out: Kd at Tm.

T3 sequence (P09038 134-288, species assumed): as the sequence (P09038 134-288, species assumed) above

For the substance pentosan polysulfate [Pentosan PSO4], the Kd was 2420 nM in data set [1] (calculated with equation (1), read-out: Kd at Tm); 427 nM in data set [1] (estimated with equation (3), ΔHL estimated −10.0 kcal/mole, read-out: Kd at 298° K Observed); 208 nM in data set [2] (setting [9]); 31 nM in data set [2] (equation (3), ΔHL estimated −10.0 kcal/mole, read-out: Kd at 298° K Observed); 55 nM in data set [3]; 19100 nM in data set [4] (setting [9]). Moreover, the Kd in data set [4] (equation (3), ΔHL −12.1 (pentosan PSO4) and −7.48 kcal/mole (heparin 5000), read-out: Kd at 298° K Observed) is 4900 nM; in data set [6], 10900 nM. The “affinity at Tm, fold higher than the affinity of heparin 5000” value in data set [1] (thermal shift assay, at Tm) was 7 fold. Also, the Tm in data set [1] (thrombin/ligand complex, 11 μM thrombin, ligand 40-102 μM, turbidity) worked out at 332.15 ° K; in data set [2] (aFGF/ligand, aFGF 0.25 mg/mL, ligand 47-200 μM, turbidity), 336.15 ° K; in data set [4] (D(II) FGFR1 70 μM, 136 μM ANS, ligand 150-156 μM) it was 319.4 ° K. Moreover, in data set [5], the Ki was 88 nM. In addition, the anticoagulant properties entry in data set [7] is given as “anticoagulant properties”. In data set [8], the “outcome of clinical trials” value is listed as “discounted due to toxic effects”.
